Source: patent publication US3992371A, “Penicillins substituted with heterocyclic and substituted phenyl groups” (Sumitomo Chemical Company, Limited, priority 1973, dated 1976)
≈ marks a conversion by molar mass, not a printed value.

Assays:
[1] = tested on: gram-positive and gram-negative bacteria; details: background statement; cited from earlier work
Pseudomonas = details: background statement; cited from earlier work
Proteus vulgaris HV19 = test: Minimal inhibitory concentration, agar dilution method; format: cell-based
[2] = tested on: Pseudomonas aeruginosa 104; test: as above; format: cell-based
Source text: (§1) When determined according to the agar dilution method, the penicillins (I) afford the minimal inhibitory concentrations against test microorganisms as shown in Table 2.

[3] = tested on: Klebsiella pneumoniae PCI602; test: as above; format: cell-based
Source text: as §1

[4] = tested on: Staphylococcus aureus 209P; test: as above; format: cell-based
Source text: as §1

Escherichia coli NIHJ = test: as above; format: cell-based
Source text: as §1

Proteus miravilis GN2425 = test: as above; format: cell-based

| Molecule | inhibition of the growth of gram-positive and gram-negative bacteria [1] | antimicrobial activity against Pseudomonas (Pseudomonas) | MIC (Proteus vulgaris HV19) | MIC [2] | MIC [3] | MIC [4] | MIC (Escherichia coli NIHJ) | MIC (Proteus miravilis GN2425) |
| --- | --- | --- | --- | --- | --- | --- | --- | --- |
| 6(α-amino-thienylacetamido)penicillanic acid | inhibit the growth of various gram-positive and gram-negative bacteria | do not exert any appreciable antimicrobial activity against Pseudomonas |  |  |  |  |  |  |
| 6-(α-amino-isothiazolylacetamido)penicillanic acid | inhibit the growth of various gram-positive and gram-negative bacteria | do not exert any appreciable antimicrobial activity against Pseudomonas |  |  |  |  |  |  |
| CC1(C)S[C@@H]2C(NC(=O)C(N)c3ccc(O)cc3)C(=O)N2[C@H]1C(=O)O (stereo partly drawn) [Amoxycillin, 6-(α-amino-p-hydroxyphenylacetamido)penicillanic acid] | inhibit the growth of various gram-positive and gram-negative bacteria | do not exert any appreciable antimicrobial activity against Pseudomonas |  |  |  |  |  |  |
| COc1ccc(C(NC(=O)c2cnc3ccncc3c2O)C(=O)NC2C(=O)N3C2SC(C)(C)C3C(=O)O)cc1 (stereo not drawn) [Example 41] |  |  | 0.39 µg/mL (≈ 0.707 µM) | 3.13 µg/mL (≈ 5.67 µM) | 12.5 µg/mL (≈ 22.7 µM) | 1.56 µg/mL (≈ 2.83 µM) | 3.13 µg/mL (≈ 5.67 µM) | 12.5 µg/mL (≈ 22.7 µM) |
| CC1(C)SC2C(NC(=O)C(NC(=O)c3cnc4nc(N)ncc4c3O)c3cccc(N)c3)C(=O)N2C1C(=O)O (stereo not drawn) [Example 42] |  |  | 0.05 µg/mL (≈ 0.0905 µM) | 3.13 µg/mL (≈ 5.66 µM) | 12.5 µg/mL (≈ 22.6 µM) | 1.56 µg/mL (≈ 2.82 µM) | 3.13 µg/mL (≈ 5.66 µM) | 1.56 µg/mL (≈ 2.82 µM) |
| CNc1ncc2c(O)c(C(=O)NC(C(=O)NC3C(=O)N4C3SC(C)(C)C4C(=O)O)c3cccc(N)c3)cnc2n1 (stereo not drawn) [Example 43] |  |  | 0.05 µg/mL (≈ 0.0882 µM) | 3.13 µg/mL (≈ 5.52 µM) | 12.5 µg/mL (≈ 22.1 µM) | 1.56 µg/mL (≈ 2.75 µM) | 3.13 µg/mL (≈ 5.52 µM) | 1.56 µg/mL (≈ 2.75 µM) |
| COc1ccc(C(NC(=O)c2cnc3ccc(C)nc3c2O)C(=O)NC2C(=O)N3C2SC(C)(C)C3C(=O)O)cc1 (stereo not drawn) [Example 44] |  |  | 0.05 µg/mL (≈ 0.0884 µM) | 3.13 µg/mL (≈ 5.53 µM) | 12.5 µg/mL (≈ 22.1 µM) | 1.56 µg/mL (≈ 2.76 µM) | 3.13 µg/mL (≈ 5.53 µM) | 6.25 µg/mL (≈ 11.1 µM) |
| Cc1ccc2ncc(C(=O)NC(C(=O)NC3C(=O)N4C3SC(C)(C)C4C(=O)O)c3ccc(N(C)C)cc3)c(O)c2n1 (stereo not drawn) [Example 45] |  |  | 0.1 µg/mL (≈ 0.173 µM) | 1.56 µg/mL (≈ 2.7 µM) | 6.25 µg/mL (≈ 10.8 µM) | 1.56 µg/mL (≈ 2.7 µM) | 3.13 µg/mL (≈ 5.41 µM) | 6.25 µg/mL (≈ 10.8 µM) |
| CCOC(=O)Oc1c(C(=O)NC(C(=O)NC2C(=O)N3C2SC(C)(C)C3C(=O)O)c2ccc(OC)cc2)cnc2ccc(C)nc12 (stereo not drawn) [Example 46] |  |  | 0.1 µg/mL (≈ 0.157 µM) | 3.13 µg/mL (≈ 4.91 µM) | 12.5 µg/mL (≈ 19.6 µM) | 1.56 µg/mL (≈ 2.45 µM) | 3.13 µg/mL (≈ 4.91 µM) | 12.5 µg/mL (≈ 19.6 µM) |
| CC1(C)SC2C(NC(=O)C(NC(=O)c3cnc4cccnc4c3O)c3cccc(F)c3)C(=O)N2C1C(=O)O (stereo not drawn) [Example 47] |  |  | 0.05 µg/mL (≈ 0.0927 µM) | 1.56 µg/mL (≈ 2.89 µM) | 12.5 µg/mL (≈ 23.2 µM) | 1.56 µg/mL (≈ 2.89 µM) | 1.56 µg/mL (≈ 2.89 µM) | 1.56 µg/mL (≈ 2.89 µM) |
| CC1(C)SC2C(NC(=O)C(NC(=O)c3nc4ccccc4nc3O)c3cccc(F)c3)C(=O)N2C1C(=O)O (stereo not drawn) [Example 48] |  |  | 0.2 µg/mL (≈ 0.371 µM) | 1.56 µg/mL (≈ 2.89 µM) | 12.5 µg/mL (≈ 23.2 µM) | 0.78 µg/mL (≈ 1.45 µM) | 3.13 µg/mL (≈ 5.8 µM) | 12.5 µg/mL (≈ 23.2 µM) |
| CC1(C)SC2C(NC(=O)C(NC(=O)c3cnc4cc5c(cc4c3O)OCC5)c3cccc(N)c3)C(=O)N2C1C(=O)O (stereo not drawn) [Example 49] |  |  | 0.2 µg/mL (≈ 0.346 µM) | 3.13 µg/mL (≈ 5.42 µM) | 6.25 µg/mL (≈ 10.8 µM) | 0.78 µg/mL (≈ 1.35 µM) | 3.13 µg/mL (≈ 5.42 µM) | 3.13 µg/mL (≈ 5.42 µM) |
| CC1(C)SC2C(NC(=O)C(NC(=O)c3cnc4c5c(ccc4c3O)CCC5)c3cccc(N)c3)C(=O)N2C1C(=O)O (stereo not drawn) [Example 50] |  |  | 0.39 µg/mL (≈ 0.677 µM) | 3.13 µg/mL (≈ 5.44 µM) | 12.5 µg/mL (≈ 21.7 µM) | 0.78 µg/mL (≈ 1.35 µM) | 3.13 µg/mL (≈ 5.44 µM) | 12.5 µg/mL (≈ 21.7 µM) |
| CSc1nc2ccc3ncc(C(=O)NC(C(=O)NC4C(=O)N5C4SC(C)(C)C5C(=O)O)c4cccc(N)c4)c(O)c3c2s1 (stereo not drawn) [Example 51] |  |  | 0.2 µg/mL (≈ 0.313 µM) | 3.13 µg/mL (≈ 4.9 µM) | 6.25 µg/mL (≈ 9.78 µM) | 0.78 µg/mL (≈ 1.22 µM) | 3.13 µg/mL (≈ 4.9 µM) | 3.13 µg/mL (≈ 4.9 µM) |
| CC1(C)SC2C(NC(=O)C(NC(=O)c3cnc4ccc(N5CCCC5)nc4c3O)c3ccc(N)cc3)C(=O)N2C1C(=O)O (stereo not drawn) [Example 52] |  |  | 0.05 µg/mL (≈ 0.0826 µM) | 1.56 µg/mL (≈ 2.58 µM) | 6.25 µg/mL (≈ 10.3 µM) | 1.56 µg/mL (≈ 2.58 µM) | 0.78 µg/mL (≈ 1.29 µM) | 1.56 µg/mL (≈ 2.58 µM) |
| CC1(C)SC2C(NC(=O)C(NC(=O)c3cnc4nc(N5CCCC5)ncc4c3O)c3cccc(N)c3)C(=O)N2C1C(=O)O (stereo not drawn) [Example 53] |  |  | 0.025 µg/mL (≈ 0.0412 µM) | 3.13 µg/mL (≈ 5.16 µM) | 6.25 µg/mL (≈ 10.3 µM) | 1.56 µg/mL (≈ 2.57 µM) | 3.13 µg/mL (≈ 5.16 µM) | 3.13 µg/mL (≈ 5.16 µM) |
| CC1(C)SC2C(NC(=O)C(NC(=O)c3cnc4nc(N5CCOCC5)ncc4c3O)c3ccc(N)cc3)C(=O)N2C1C(=O)O (stereo not drawn) [Example 54] |  |  | 0.05 µg/mL (≈ 0.0803 µM) | 3.13 µg/mL (≈ 5.03 µM) | 6.25 µg/mL (≈ 10 µM) | 1.56 µg/mL (≈ 2.51 µM) | 3.13 µg/mL (≈ 5.03 µM) | 3.13 µg/mL (≈ 5.03 µM) |
| CCNc1ccc2ncc(C(=O)NC(C(=O)NC3C(=O)N4C3SC(C)(C)C4C(=O)O)c3cccc(N)c3)c(O)c2n1 (stereo not drawn) [Example 55] |  |  | 0.025 µg/mL (≈ 0.0431 µM) | 1.56 µg/mL (≈ 2.69 µM) | 6.25 µg/mL (≈ 10.8 µM) | 1.56 µg/mL (≈ 2.69 µM) | 0.78 µg/mL (≈ 1.35 µM) | 0.78 µg/mL (≈ 1.35 µM) |
| Cc1nc(O)c2c(O)c(C(=O)NC(C(=O)NC3C(=O)N4C3SC(C)(C)C4C(=O)O)c3cccc(N)c3)cnc2n1 (stereo not drawn) [Example 56] |  |  | 0.05 µg/mL (≈ 0.0881 µM) | 3.13 µg/mL (≈ 5.51 µM) | 6.25 µg/mL (≈ 11 µM) | 1.56 µg/mL (≈ 2.75 µM) | 1.56 µg/mL (≈ 2.75 µM) | 3.13 µg/mL (≈ 5.51 µM) |
| COc1nc(OC)c2ncc(C(=O)NC(C(=O)NC3C(=O)N4C3SC(C)(C)C4C(=O)O)c3cccc(N)c3)c(O)c2n1 (stereo not drawn) [Example 57] |  |  | 0.025 µg/mL (≈ 0.0418 µM) | 1.56 µg/mL (≈ 2.61 µM) | 6.25 µg/mL (≈ 10.5 µM) | 1.56 µg/mL (≈ 2.61 µM) | 0.78 µg/mL (≈ 1.31 µM) | 1.56 µg/mL (≈ 2.61 µM) |
| Cc1ncc2c(O)c(C(=O)NC(C(=O)NC3C(=O)N4C3SC(C)(C)C4C(=O)O)c3cccc(N)c3)cnc2n1 (stereo not drawn) [Example 58] |  |  | 0.05 µg/mL (≈ 0.0906 µM) | 3.13 µg/mL (≈ 5.67 µM) | 12.5 µg/mL (≈ 22.7 µM) | 1.56 µg/mL (≈ 2.83 µM) | 1.56 µg/mL (≈ 2.83 µM) | 3.13 µg/mL (≈ 5.67 µM) |
| CCn1ncc2c(O)c(C(=O)NC(C(=O)NC3C(=O)N4C3SC(C)(C)C4C(=O)O)c3ccc(N)cc3)cnc21 (stereo not drawn) [Example 59] |  |  | 0.1 µg/mL (≈ 0.181 µM) | 1.56 µg/mL (≈ 2.82 µM) | 12.5 µg/mL (≈ 22.6 µM) | 0.78 µg/mL (≈ 1.41 µM) | 3.13 µg/mL (≈ 5.65 µM) | 6.25 µg/mL (≈ 11.3 µM) |
| Cc1cc(C(NC(=O)c2cnc3cccnc3c2O)C(=O)NC2C(=O)N3C2SC(C)(C)C3C(=O)O)ccc1O (stereo not drawn) [Example 60] |  |  | 0.05 µg/mL (≈ 0.0906 µM) | 1.56 µg/mL (≈ 2.83 µM) | 6.25 µg/mL (≈ 11.3 µM) | 0.78 µg/mL (≈ 1.41 µM) | 0.78 µg/mL (≈ 1.41 µM) | 1.56 µg/mL (≈ 2.83 µM) |
| CC1(C)SC2C(NC(=O)C(NC(=O)c3cnc4cccnc4c3O)c3ccc(O)c(O)c3)C(=O)N2C1C(=O)O (stereo not drawn) [Example 61] |  |  | 0.025 µg/mL (≈ 0.0452 µM) | 1.56 µg/mL (≈ 2.82 µM) | 12.5 µg/mL (≈ 22.6 µM) | 0.78 µg/mL (≈ 1.41 µM) | 0.78 µg/mL (≈ 1.41 µM) | 1.56 µg/mL (≈ 2.82 µM) |
| CC1(C)SC2C(NC(=O)C(NC(=O)c3cnc4cccnc4c3O)c3ccc(O)c([N+](=O)[O-])c3)C(=O)N2C1C(=O)O (stereo not drawn) [Example 62] |  |  | 0.05 µg/mL (≈ 0.0858 µM) | 1.56 µg/mL (≈ 2.68 µM) | 12.5 µg/mL (≈ 21.5 µM) | 1.56 µg/mL (≈ 2.68 µM) | 1.56 µg/mL (≈ 2.68 µM) | 3.13 µg/mL (≈ 5.37 µM) |
| CC1(C)SC2C(NC(=O)C(NC(=O)c3cnc4cccnc4c3O)c3ccc(O)c(N)c3)C(=O)N2C1C(=O)O (stereo not drawn) [Example 63] |  |  | 0.025 µg/mL (≈ 0.0452 µM) | 1.56 µg/mL (≈ 2.82 µM) | 6.25 µg/mL (≈ 11.3 µM) | 0.78 µg/mL (≈ 1.41 µM) | 0.78 µg/mL (≈ 1.41 µM) | 1.56 µg/mL (≈ 2.82 µM) |
| COc1cc(C(NC(=O)c2cnc3cccnc3c2O)C(=O)NC2C(=O)N3C2SC(C)(C)C3C(=O)O)ccc1O (stereo not drawn) [Example 64] |  |  | 0.05 µg/mL (≈ 0.0881 µM) | 1.56 µg/mL (≈ 2.75 µM) | 12.5 µg/mL (≈ 22 µM) | 1.56 µg/mL (≈ 2.75 µM) | 3.13 µg/mL (≈ 5.51 µM) | 3.13 µg/mL (≈ 5.51 µM) |
